Data on 18 compounds can be found in US11840528B2 (Hoffmann-La Roche Inc., priority 2018, dated 2023).

Assay [1] addresses T1, h-GABA-A α5β3γ2 (Homo sapiens, UniProt P18507+P31644). Kind of assay: Two-electrode voltage clamp electrophysiology in Xenopus laevis oocytes expressing GABAA receptors, modulation of GABA EC20 current. Details: host or cells: Xenopus laevis oocytes micro-injected with RNA transcripts of the subunits. The settings on record: Table 1; for Efficacy (GABA) %: % modulation of GABA EC20 = 100*(Fold increase-1); for Fold increase h-GABA-A α5β3γ2 oocyte: test compound at approx. 30 fold its Ki, GABA at EC20. It counts as cell-based. The procedure, abridged:
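Modulation is reported as % of the GABA EC20 current, calculated as 100*(Fold increase−1) from the peak ratio between a second GABA response carrying compound (applied at roughly 30-fold Ki) and a preceding control response. Oocytes expressing human α5β3γ2 were clamped at −80 mV at room temperature, 3–5 days after injection.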
(In general: Two-electrode voltage clamp holds a large cell at a set potential and records current.)

Assay [2] deals with T1, h-GABA-A α5β3γ2. Kind of assay: [3H]flumazenil competition binding assay, membranes of HEK293 cells expressing GABAA receptors. The settings on record: displacement of [3H]-Flumazenil 0.5 nM, HEK293 cells expressing human receptors, mean of two determinations; Table 1. The method in brief: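 Receptor source: human α5β3γ2 transiently transfected into HEK293 cells, membranes in pH 7.5 Krebs-tris. Filtration through GF/C, then scintillation counting.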
For orientation: Displacement assays read how much labelled ligand stays bound in the presence of the test substance.

Each structure is given as a SMILES string.

A word on the Ki: it is the equilibrium dissociation constant of an inhibitor or competing ligand from its target. Higher therefore signals a looser hold on the target. As for `Cc1ccc(-c2noc(C)c2Cn2ncc(-c3ccnc(OC4CCOC4)c3)cc2=O)cn1` (stereo not drawn) [Example 177, 2-((5-methyl-3-(6-methylpyridin-3-yl)isoxazol-4-yl)methyl)-5-(2-((tetrahydrofuran-3-yl)oxy)pyridin-4-yl)pyridazin-3(2H)-one], in assay [1], the “Efficacy (GABA) %” value was 121% and the “Fold increase h-GABA-A α5β3γ2 oocyte” value is on record as 2.21. The Ki in assay [2] turned out to be 18.4 nM.
Taken in the same sequence, the figures for `Cc1ccc(-c2noc(C)c2Cn2ncc(N3CC[C@@H](C)C3)cc2=O)cn1` [Example 178, 2-[[5-methyl-3-(6-methyl-3-pyridyl)isoxazol-4-yl]methyl]-5-[(3R)-3-methylpyrrolidin-1-yl]pyridazin-3-one] were 158%, 2.58 and 2.7 nM.
The like results for `COc1cc(-c2cnn(Cc3c(-c4ccc(C)nc4)noc3C)c(=O)c2)cnc1OC` [Example 179, 5-(5,6-dimethoxypyridin-3-yl)-2-((5-methyl-3-(6-methylpyridin-3-yl)isoxazol-4-yl)methyl)pyridazin-3(2H)-one] were, in that order, 133%, 2.33 and 29.7 nM.
Taken in the same sequence, the figures for `CCOc1ncc(-c2cnn(Cc3c(-c4ccc(C)nc4)noc3C)c(=O)c2)cc1C` [Example 180, 5-(6-ethoxy-5-methylpyridin-3-yl)-2-((5-methyl-3-(6-methylpyridin-3-yl)isoxazol-4-yl)methyl)pyridazin-3(2H)-one] were 196%, 2.96 and 39 nM.
In the case of `Cc1ccc(-c2noc(C)c2Cn2ncc(N3CC(F)C3)cc2=O)cn1` [Example 181, 5-(3-fluoroazetidin-1-yl)-2-[[5-methyl-3-(6-methyl-3-pyridyl)isoxazol-4-yl]methyl]pyridazin-3-one], in assay [1], the “Efficacy (GABA) %” value is reported as 134% and the “Fold increase h-GABA-A α5β3γ2 oocyte” value came to 2.34. In addition, in assay [2], the Ki was determined as 15.7 nM.
Taken in the same sequence, the figures for `Cc1ccc(-c2noc(C(F)F)c2Cn2ncc(N3C[C@@H](C)O[C@@H](C)C3)cc2=O)cn1` [Example 182, 2-((5-(Difluoromethyl)-3-(6-methylpyridin-3-yl)isoxazol-4-yl)methyl)-5-((2S,6R)-2,6-dimethylmorpholino)pyridazin-3(2H)-one] were 209%, 3.09 and 18.9 nM.
The like results for `COc1ncc(-c2cnn(Cc3c(-c4ccc(C)nc4)noc3C)c(=O)c2)cc1F` [Example 183, 5-(5-fluoro-6-methoxypyridin-3-yl)-2-((5-methyl-3-(6-methylpyridin-3-yl)isoxazol-4-yl)methyl)pyridazin-3(2H)-one] were, in that order, 137%, 2.37 and 28.7 nM.
As to `Cc1ccc(-c2noc(C)c2Cn2ncc(N3CCN(C(C)C)[C@@H](C)C3)cc2=O)cn1` [Example 184, 5-[(3S)-4-isopropyl-3-methyl-piperazin-1-yl]-2-[[5-methyl-3-(6-methyl-3-pyridyl)isoxazol-4-yl]methyl]pyridazin-3-one], in assay [1], the “Efficacy (GABA) %” value was found to be 125% and the “Fold increase h-GABA-A α5β3γ2 oocyte” value is 2.25. Besides, in assay [2], the Ki turned out to be 28.8 nM.
The like results for `Cc1ccc(-c2noc(C)c2Cn2ncc(N3CC(OCC4CC4)C3)cc2=O)nn1` [Example 185, 5-[3-(cyclopropylmethoxy)azetidin-1-yl]-2-[[5-methyl-3-(6-methylpyridazin-3-yl)isoxazol-4-yl]methyl]pyridazin-3-one] were, in that order, 126%, 2.26 and 4.2 nM.
Taken in the same sequence, the figures for `Cc1ccc(-c2noc(C)c2Cn2ncc(N3CC(Oc4ccc(C)nn4)C3)cc2=O)cn1` [Example 186, 2-[[5-methyl-3-(6-methyl-3-pyridyl)isoxazol-4-yl]methyl]-5-[3-(6-methylpyridazin-3-yl)oxyazetidin-1-yl]pyridazin-3-one] were 160%, 2.6 and 37.4 nM.
Consider `COc1ncc(-c2cnn(Cc3c(-c4ccc(C)nc4)noc3C)c(=O)c2)cc1Cl` [Example 188, 5-(5-chloro-6-methoxypyridin-3-yl)-2-((5-methyl-3-(6-methylpyridin-3-yl)isoxazol-4-yl)methyl)pyridazin-3(2H)-one], for which, in assay [1], the “Efficacy (GABA) %” value was found to be 210% and the “Fold increase h-GABA-A α5β3γ2 oocyte” value is 3.1. Further, the Ki in assay [2] was 8.6 nM.
On to `Cc1ccc(-c2noc(C)c2Cn2ncc(-c3cc(F)cnc3Cl)cc2=O)cn1` [Example 189, 5-(2-chloro-5-fluoro-3-pyridyl)-2-((5-methyl-3-(6-methyl-3-pyridyl)isoxazol-4-yl)methyl)pyridazin-3-one], for which, in assay [1], the “Efficacy (GABA) %” value is recorded as 180% and the “Fold increase h-GABA-A α5β3γ2 oocyte” value is recorded as 2.8. The compound further showed a Ki in assay [2] of 28.2 nM.
The like results for `Cc1ccc(-c2noc(C)c2Cn2ncc(-c3ccc(OC(C)C)nc3)cc2=O)cn1` [Example 190, 5-(6-isopropoxy-3-pyridyl)-2-((5-methyl-3-(6-methyl-3-pyridyl)isoxazol-4-yl)methyl)pyridazin-3-one] were, in that order, 146%, 2.46 and 25.2 nM.
The like results for `COc1cc(-c2cnn(Cc3c(-c4ccc(C)nc4)noc3C)c(=O)c2)c(F)cn1` [Example 191, 5-(5-fluoro-2-methoxypyridin-4-yl)-2-((5-methyl-3-(6-methylpyridin-3-yl)isoxazol-4-yl)methyl)pyridazin-3(2H)-one] were, in that order, 126%, 2.26 and 5.9 nM.
The like results for `Cc1ccc(-c2noc(C)c2Cn2ncc(-c3cc(C)nc(C)c3)cc2=O)cn1` [Example 192, 5-(2,6-dimethylpyridin-4-yl)-2-((5-methyl-3-(6-methylpyridin-3-yl)isoxazol-4-yl)methyl)pyridazin-3(2H)-one] were, in that order, 221%, 3.21 and 6.4 nM.
As to `Cc1ccc(-c2noc(C)c2Cn2ncc(N3CC4(C3)CC(F)(F)CO4)cc2=O)cn1` [Example 193, 5-(7,7-difluoro-5-oxa-2-azaspiro[3.4]octan-2-yl)-2-[[5-methyl-3-(6-methyl-3-pyridyl)isoxazol-4-yl]methyl]pyridazin-3-one], in assay [1], the “Efficacy (GABA) %” value came to 95% and the “Fold increase h-GABA-A α5β3γ2 oocyte” value is reported as 1.95. In addition, in assay [2], the Ki was 7.2 nM.
Regarding `CO[C@@H]1CN(c2cnn(Cc3c(-c4ccc(C)nc4)noc3C)c(=O)c2)[C@@H]1C` [Example 194, 5-[(2R,3R)-3-methoxy-2-methyl-azetidin-1-yl]-2-[[5-methyl-3-(6-methyl-3-pyridyl)isoxazol-4-yl]methyl]pyridazin-3-one], in assay [1], the “Efficacy (GABA) %” value came to 152% and the “Fold increase h-GABA-A α5β3γ2 oocyte” value worked out at 2.52. The same compound had a Ki in assay [2] of 10.8 nM.
The like results for `Cc1ccc(-c2noc(C)c2Cn2ncc(N3CC4(CCCCC4)C3)cc2=O)cn1` [Example 195] were, in that order, 118%, 2.18 and 17.2 nM.
